Measured values from US5643893A, “N-substituted-(Dihydroxyboryl)alkyl purine, indole and pyrimidine derivatives, useful as inhibitors of inflammatory cytokines” (Macronex, Inc., priority 1994, dated 1997).

Columns and labels:
PBMC [1] = assay: PBMC proliferation to mitogen PHA; assay type: cell-based; settings: Homo sapiens, effect INHIB (Inhibition), PHA 1.0 μg/ml
Protocol: (§1) Unless otherwise described the medium for human cell culture assays is defined as follows: RPMI-1640 is supplemented with 100 U/ml penicillin, 100 μg/ml streptomycin, 2 mM L-glutamine; 1 mM Na pyruvate; 1% MEM non-essential amino acids and 25 mM HEPES; (all from GIBCO, Gaithersburg, Md.). Complete medium is defined as medium supplemented with 5% pooled, heat-inactivated (56° C., 30 minutes) human AB serum (Pel-freeze, Brown Deer, Wis.).
Human Peripheral Blood Mononuclear Cell (PBMC) Isolation:
Venous blood is obtained from healthy volunteers and mixed with an equal volume of sterile isotonic saline/10 mM HEPES and placed into 50 ml conical polypropylene tubes in 30 ml aliquots. Each aliquot of diluted blood is underlaid with 20-25 ml of sterile Lymphocyte Separation Medium (LSM; Organon-Technika, Durham, N.C.). The tubes are centrifuged at 400 g for 40 minutes at room temperature. […] Cell concentrations for each donor are determined by counting in an haematology analyser (Serono-Baker). […]
PBMC are adjusted to 4×10^6 /ml in complete medium. […] The contents of the wells are harvested onto glass fibre filters using a multiple automated sample harvester (Tomtec), and the incorporated ^3 H-thymidine determined by liquid scintillation spectrophotometry and represented an cpm (counts per minute) incorporated per well.

PBMC [2] = assay: Two-way mixed lymphocyte reaction (MLR); assay type: cell-based; settings: Homo sapiens, effect INHIB (Inhibition)
Protocol: as §1
Two-Way Mixed Lymphocyte Reaction (MLR):
PBMC are prepared as described for the mitogen assays, but resuspended to 2×10^6 cells/ml in complete medium. Fifty μl of cell suspension from two different individuals is then added to each well of a 96-well flat bottom tissue culture plate. An additional 100 μl of complete medium, dexamethasone or test compounds are then added to each well, the plates are incubated for 6 days at 37° C., and then pulsed with ^3 H-thymidine and harvested as previously described.

GM-CSF = assay: Monocyte release of GM-CSF; assay type: cell-based; settings: Homo sapiens, effect INHIB (Inhibition), LPS 100 ng/ml
IL1β = assay: Monocyte release of IL-1β; assay type: cell-based, human; design: key: NE: No effect; NT: Not tested; INHIB: Inhibition; STIM: Stimulation; TC: Tolerated Concentration; settings: LPS 100 ng/ml
IL1ra = assay: Monocyte release of IL-1 receptor antagonist; assay type: cell-based, human; design: key: NE: No effect; NT: Not tested; INHIB: Inhibition; STIM: Stimulation; TC: Tolerated Concentration
IL6 = assay: Monocyte release of IL-6; assay type: cell-based, human; design: key: NE: No effect; NT: Not tested; INHIB: Inhibition; STIM: Stimulation; TC: Tolerated Concentration; settings: LPS 100 ng/ml
IL8 = assay: Monocyte release of IL-8; assay type: cell-based, human; design: key: NE: No effect; NT: Not tested; INHIB: Inhibition; STIM: Stimulation; TC: Tolerated Concentration; settings: LPS 100 ng/ml
TNFα = assay: Monocyte release of TNF-α; assay type: cell-based; settings: Homo sapiens, effect INHIB (Inhibition), LPS 100 ng/ml
TISSUE FACTOR = assay: Monocyte procoagulant activity (Tissue Factor); assay type: cell-based; settings: Homo sapiens, effect INHIB (Inhibition)
Protocol: Purified monocytes prepared as described above are suspended at 4×10^6 cells/ml in complete medium. To each well of a 48-well flat bottomed tissue culture plate is added 0.125 ml of cell suspension. Test materials (diluted in complete medium at 2× the desired final concentration) are added in 250 μl volumes to each well. Control wells receive 250 μl of complete medium or 250 μl of IL-4 (diluted to×2 the desired final concentration of 50 ng/ml). All samples are tested at four concentrations in the presence or absence of 100 ng/ml LPS (125 μl of 4× desired final concentration added) and incubated at 37° C. in humidified 5% CO2, for 16 hours. At this time, culture supernatants are aspirated off, and the unattached cells and cell debris are removed by a 2 minute spin in a microcentrifuge at 10,000 g.l The release of cytokines and growth factors is determined in the cell-free supernatants using ELISA capture assays. In this way, testing for IL-1β, TNF-α, IL-1 receptor antagonist, IL-6, IL-8, GM-CSF and PDGF is conducted.
Monocyte Procoagulant Activity (Tissue Factor):
The adhered monocytes remaining on the 48-well tissue culture plates after removal of the supernatants above, are used to measure levels of Tissue Factor production. The cells are solubilized overnight at 4° C. in 10% Triton-×100 in PBS, diluted to 1% Triton-×100 with PBS then assayed by ELISA for Tissue Factor.

LTB4 = assay: Monocyte release of LTB4; assay type: cell-based; settings: Homo sapiens, effect INHIB (Inhibition), zymosan A
Protocol: (§2) Monocyte Release of PGE2, LTB4, and PAF:
(§3) Monocytes isolated as described above, were washed and resuspended in RPMl containing 5 mg/ml HSA at 2×10^6 cells/ml and added to wells of a 48-well plates. The cells were allowed to adhere for 2 hours then washed in HBSS-BSA-HEPES buffer. Test materials were added at four concentrations (175 μl) for 60 minutes; then the monocytes were stimulated by addition of […] zymosan A (175 μl of 2× desired final concentration added). Supernatant medium was collected from the wells after 90 minutes incubation and stored at -20° C. until assayed. Supernatants were assayed for PGE2, LTB4 or PAF using specific scintillation proximity assays (SPA).

PAF = assay: Monocyte release of PAF; assay type: cell-based, human; design: key: NE: No effect; NT: Not tested; INHIB: Inhibition; STIM: Stimulation; TC: Tolerated Concentration; settings: zymosan A
Protocol: as §2, §3

SUPEROXIDE = assay: Monocyte superoxide anion (O2) release; assay type: cell-based, human; design: key: NE: No effect; NT: Not tested; INHIB: Inhibition; STIM: Stimulation; TC: Tolerated Concentration; settings: zymosan A
Protocol: Monocyte Superoxide Anion (O2) Release:
Monocytes are prepared as described above and resuspended to 5×10^6 /ml in HBSS containing 10 Mm HEPES, 2 g/l glucose, 0.1% BSA, Ph 7.2. To each well of a 96-well flat bottom, tissue culture plate is added 100 μl of cell suspension and 100 μl of buffer or test materials. Samples are run in quadruplicate. The plate is incubated for 60 minutes at 37° C. followed by the addition of 50 μl of buffer containing cytochrome C (5 mg/ml; type VI, horse heart, Sigma) and bovine liver catalase (1500 U/ml; Sigma) in the presence of zymosan A (ZYM); 750 μg/ml; Sigma). The plate is incubated an additional 120 minutes at 37° C. during which the absorbance at 550 nm is monitored using a microplate reader incorporating dedicated software for kinetic analysis (Molecular Devices; Menlo Park, Calif.).

Monocytes = assay: Inhibition of monocyte chemotaxis; assay type: cell-based, human; design: key: NE: No effect; NT: Not tested; INHIB: Inhibition; STIM: Stimulation; TC: Tolerated Concentration; settings: chemoattractant FMLP
Protocol: Inhibition of Monocyte Chemotaxis:
Monocytes are prepared as previously described, and resuspended at 5×10^6 cells/ml in HBSS, 0.1% BSA (HBSS-BSA). Fluorophore labeling of the cells is carried out by adding calcein-AM to the above cells at a final concentration of 2 μM. Following a 30 minute incubation at 37° C. in humidified 5% CO2, the labeled monocytes are washed twice and incubated in a range of dilutions of the test materials for 60 minutes at 37° C. in humidified 5% CO2. The pre-treated, calcein-AM loaded cells are then added in triplicate to the wells of the top compartment of a NeuroProbe (Cabin, John, M.D.) 96-well chemotaxis chamber (2×10^5 cells/well) and permitted to migrate through a 10 μm thick bonded polycarbonate membrane (5 μm porosity; NeuroProbe Inc; Cabin, John, M.D.) towards the wells of the lower compartment containing the chemoattractant (FMLP) at 5×10^-9 M. After a 90 minute incubation at 37° C. in a humidified chamber, the wells of the upper chambers are aspirated, the monocyte-associated membrane removed, non-migrating cells wiped off and the filters permitted to air dry to 15 minutes. The number of cells migrating through the membranes are quantified by measuring the fluorescent intensity of the migrating cells in a fluorescent microplate reader (CytoFluor 2300, Millipore Corp., Bedford, Mass.)

MTS = assay type: cell-based; settings: printed in the EC50 column; effect TC; read-out: TC Tolerated Concentration (MTS)
LDH = assay type: cell-based; settings: printed in the EC50 column; effect TC; read-out: TC Tolerated Concentration (LDH)
HIV-1 = settings: 12 weeks, p<0.05; cited from earlier work
[3] = tested on: latent HIV-1 in a monocytoid (U1) cell line; settings: cited from earlier work
TNF-α = settings: cited from earlier work
[4] = tested on: HIV-1 in peripheral blood mononuclear cells; settings: advanced HIV-1 infection and AIDS; cited from earlier work

SMILES: Nc1nc(Cl)c2ncn(CCCCB(O)O)c2n1 [2-Amino-6-chloro-9-(4-dihydroxyborylbutyl)purine]
- EC50 (PBMC [1]): 100 µM
- EC50 (PBMC [2]): 50 µM
- EC50 (GM-CSF): 6.8 µM
- EFFECT (IL1β) (IL1β): NE
- EFFECT (IL1ra) (IL1ra): NE
- EFFECT (IL6) (IL6): NE
- EFFECT (IL8) (IL8): NE
- EC50 (TNFα): 0.57 µM
- EC50 (TISSUE FACTOR): 2.1 µM
- EC50 (LTB4): 90.5 µM
- EFFECT (PAF) (PAF): NE
- EFFECT (SUPEROXIDE) (SUPEROXIDE): NE
- EFFECT (CHEMOTAXIS) (Monocytes): NE
- MNTC (MTS): 100 µM
- MNTC (LDH): 100 µM

SMILES: CC(=O)CCCCn1c(=O)c2c(ncn2C)n(C)c1=O [Pentoxifylline]
- mean HIV-1 viral load (levels with either agent alone) (HIV-1): 8- to 9 fold

SMILES: O=C1CCC(N2C(=O)c3ccccc3C2=O)C(=O)N1 (centres unmarked) [Thalidomide]
- activation of latent HIV-1 [3]: suppress the activation of latent HIV-1
- agonist-induced TNF-α protein and mRNA production (TNF-α): reduction
- inhibition of activation of virus in PBMC, patients [4]: 16 out of 17

SMILES: Cc1cn([C@H]2C[C@H](N=[N+]=[N-])[C@@H](CO)O2)c(=O)[nH]c1=O [zidovudine]
- mean HIV-1 viral load (levels with either agent alone) (HIV-1): 8- to 9 fold
